Measurements taken from ChEMBL document CHEMBL1909046, “DrugMatrix in vitro pharmacology data”.

Tests used:
[1] = DRUGMATRIX: Glutamate, AMPA radioligand binding (ligand: [3H] AMPA); type: cell membranes, Rattus norvegicus, Wistar, Cerebral cortex, Membrane; conditions: Not Active = under 50% inhibition at 10 µM
[2] = target: T1, Cholecystokinin receptor type A (Homo sapiens, UniProt P32238); type: cell membranes, Membrane; conditions: 1321-n1; also: in other assays of this panel Not Active means under 50% inhibition at 10 µM
T1 sequence (P32238 whole entry): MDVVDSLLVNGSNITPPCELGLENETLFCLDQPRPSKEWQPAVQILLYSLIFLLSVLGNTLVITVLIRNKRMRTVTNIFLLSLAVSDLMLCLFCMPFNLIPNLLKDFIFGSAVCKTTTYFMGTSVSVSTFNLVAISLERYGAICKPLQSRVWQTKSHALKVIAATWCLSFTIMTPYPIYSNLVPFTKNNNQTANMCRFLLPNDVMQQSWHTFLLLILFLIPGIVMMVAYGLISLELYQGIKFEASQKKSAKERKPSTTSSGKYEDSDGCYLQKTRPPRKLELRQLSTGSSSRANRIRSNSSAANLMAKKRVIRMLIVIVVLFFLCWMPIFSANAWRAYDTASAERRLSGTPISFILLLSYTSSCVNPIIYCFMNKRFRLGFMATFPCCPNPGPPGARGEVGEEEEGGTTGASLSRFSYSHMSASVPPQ

[3] = target: T2, Substance-K receptor (Homo sapiens, UniProt P21452); type: cell membranes, CHO, Membrane; conditions: cho; also: in other assays of this panel Not Active means under 50% inhibition at 10 µM
T2 sequence (P21452 whole entry): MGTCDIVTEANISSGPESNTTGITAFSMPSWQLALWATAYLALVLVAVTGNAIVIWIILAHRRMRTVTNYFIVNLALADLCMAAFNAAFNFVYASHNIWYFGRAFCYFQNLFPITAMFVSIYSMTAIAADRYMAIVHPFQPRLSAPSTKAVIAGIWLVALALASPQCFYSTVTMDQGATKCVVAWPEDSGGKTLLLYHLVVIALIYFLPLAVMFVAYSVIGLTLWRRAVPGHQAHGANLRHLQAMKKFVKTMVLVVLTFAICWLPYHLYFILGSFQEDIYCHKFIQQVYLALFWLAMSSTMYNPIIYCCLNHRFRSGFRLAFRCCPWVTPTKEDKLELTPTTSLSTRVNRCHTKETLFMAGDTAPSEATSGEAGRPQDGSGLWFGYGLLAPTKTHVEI

[4] = target: T3, B2 bradykinin receptor (Homo sapiens, UniProt P30411); type: cell membranes, Membrane; conditions: chem-1; also: in other assays of this panel Not Active means under 50% inhibition at 10 µM
T3 sequence (P30411 whole entry): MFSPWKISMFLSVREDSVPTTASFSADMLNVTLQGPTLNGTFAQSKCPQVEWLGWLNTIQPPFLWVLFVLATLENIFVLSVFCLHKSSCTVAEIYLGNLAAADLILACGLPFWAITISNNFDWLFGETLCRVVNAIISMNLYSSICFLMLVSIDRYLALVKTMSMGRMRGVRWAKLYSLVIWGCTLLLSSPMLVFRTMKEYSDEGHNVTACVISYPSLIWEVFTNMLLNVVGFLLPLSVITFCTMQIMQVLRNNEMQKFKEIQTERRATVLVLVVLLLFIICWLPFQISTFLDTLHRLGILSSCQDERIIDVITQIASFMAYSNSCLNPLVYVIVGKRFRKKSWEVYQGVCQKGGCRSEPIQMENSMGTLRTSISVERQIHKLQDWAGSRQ

[5] = target: T4, Endothelin-1 receptor (Homo sapiens, UniProt P25101); type: cell membranes, Membrane; conditions: cho-k1; also: in other assays of this panel Not Active means under 50% inhibition at 10 µM
T4 sequence (P25101 whole entry): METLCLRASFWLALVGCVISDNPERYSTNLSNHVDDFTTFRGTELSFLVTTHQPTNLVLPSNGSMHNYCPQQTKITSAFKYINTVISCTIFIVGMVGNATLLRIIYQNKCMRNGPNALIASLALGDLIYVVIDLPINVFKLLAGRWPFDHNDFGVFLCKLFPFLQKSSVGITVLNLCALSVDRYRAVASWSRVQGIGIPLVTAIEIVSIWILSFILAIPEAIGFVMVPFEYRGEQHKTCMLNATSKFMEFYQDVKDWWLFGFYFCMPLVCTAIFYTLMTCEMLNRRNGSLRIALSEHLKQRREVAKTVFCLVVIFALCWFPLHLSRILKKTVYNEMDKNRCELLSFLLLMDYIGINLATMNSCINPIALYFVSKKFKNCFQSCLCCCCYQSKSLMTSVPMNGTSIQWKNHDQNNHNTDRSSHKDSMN

[6] = target: Melanocortin receptor 5 (Homo sapiens, UniProt P33032); type: cell membranes, Membrane; conditions: hek293; also: in other assays of this panel Not Active means under 50% inhibition at 10 µM
Chain of Melanocortin receptor 5 (P33032 whole entry): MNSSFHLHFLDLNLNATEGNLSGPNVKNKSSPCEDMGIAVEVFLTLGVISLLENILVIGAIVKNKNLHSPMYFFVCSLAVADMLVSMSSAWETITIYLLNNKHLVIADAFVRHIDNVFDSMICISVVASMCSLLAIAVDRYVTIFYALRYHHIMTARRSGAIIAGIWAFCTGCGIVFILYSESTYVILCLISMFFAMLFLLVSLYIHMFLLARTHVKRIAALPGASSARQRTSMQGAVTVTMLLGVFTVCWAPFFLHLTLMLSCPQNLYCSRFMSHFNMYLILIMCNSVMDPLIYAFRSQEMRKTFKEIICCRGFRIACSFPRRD

[7] = DRUGMATRIX: Leukotriene, BLT (LTB4) radioligand binding (ligand: [3H]LTB4); type: cell membranes, Membrane; conditions: u-937; Not Active = under 50% inhibition at 10 µM
[8] = target: T5, Type-2 angiotensin II receptor (Homo sapiens, UniProt P50052); type: cell-based; conditions: cho-k1; also: in other assays of this panel Not Active means under 50% inhibition at 10 µM
T5 sequence (P50052 whole entry): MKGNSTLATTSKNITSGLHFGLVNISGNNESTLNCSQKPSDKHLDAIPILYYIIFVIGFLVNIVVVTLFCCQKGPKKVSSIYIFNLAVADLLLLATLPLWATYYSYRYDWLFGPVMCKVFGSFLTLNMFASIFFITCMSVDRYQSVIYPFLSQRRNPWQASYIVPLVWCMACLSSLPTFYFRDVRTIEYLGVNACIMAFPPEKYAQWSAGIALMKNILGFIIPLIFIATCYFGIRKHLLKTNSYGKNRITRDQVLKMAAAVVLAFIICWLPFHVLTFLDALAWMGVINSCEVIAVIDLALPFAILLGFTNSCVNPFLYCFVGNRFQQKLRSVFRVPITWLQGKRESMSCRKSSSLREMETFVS

C[C@H]1C[C@H]2[C@@H]3CCC4=CC(=O)C=C[C@]4(C)[C@@]3(Cl)[C@@H](O)C[C@]2(C)[C@@]1(O)C(=O)CO [BECLOMETHASONE]
Not Active: IC50 [1] | Ki [1] | IC50 [2] | IC50 [3] | IC50 [4] | IC50 [5] | IC50 [6] | IC50 [7] | Ki [7] | IC50 [8]

CCN(CC)CCOC(=O)c1ccc(N)cc1 [PROCAINE]
Not Active: IC50 [1] | Ki [1] | IC50 [2] | IC50 [3] | IC50 [4] | IC50 [5] | IC50 [6] | IC50 [7] | Ki [7] | IC50 [8]

O=C(O)Cc1ccccc1Nc1c(Cl)cccc1Cl [DICLOFENAC]
Not Active: IC50 [1] | Ki [1] | IC50 [2] | IC50 [3] | IC50 [4] | IC50 [5] | IC50 [6] | IC50 [7] | Ki [7] | IC50 [8]

CC(C)[C@H]1CC[C@H](C(=O)N[C@H](Cc2ccccc2)C(=O)O)CC1 [NATEGLINIDE]
Not Active: IC50 [1] | Ki [1] | IC50 [2] | IC50 [3] | IC50 [4] | IC50 [5] | IC50 [6] | IC50 [7] | Ki [7] | IC50 [8]

Nc1c(CC(=O)O)cccc1C(=O)c1ccc(Br)cc1 [BROMFENAC]
Not Active: IC50 [1] | Ki [1] | IC50 [2] | IC50 [3] | IC50 [4] | IC50 [5] | IC50 [6] | IC50 [7] | Ki [7] | IC50 [8]

CC(=O)Nc1cccc(O)c1 [METACETAMOL]
Not Active: IC50 [1] | Ki [1] | IC50 [2] | IC50 [3] | IC50 [4] | IC50 [5] | IC50 [6] | IC50 [7] | Ki [7] | IC50 [8]

CCn1cc(C(=O)O)c(=O)c2cc(F)c(N3CCN(C)CC3)cc21 [PEFLOXACIN]
Not Active: IC50 [1] | Ki [1] | IC50 [2] | IC50 [3] | IC50 [4] | IC50 [5] | IC50 [6] | IC50 [7] | Ki [7] | IC50 [8]

COc1ccc2c(c1)c(CC(=O)O)c(C)n2C(=O)c1ccc(Cl)cc1 [INDOMETHACIN]
Not Active: IC50 [1] | Ki [1] | IC50 [2] | IC50 [3] | IC50 [4] | IC50 [5] | IC50 [6] | IC50 [7] | Ki [7] | IC50 [8]

C[C@H]1O[C@@H](O[C@H]2[C@@H](O)C[C@H](O[C@H]3[C@@H](O)C[C@H](O[C@H]4CC[C@@]5(C)[C@H](CC[C@@H]6[C@@H]5CC[C@]5(C)[C@@H](C7=CC(=O)OC7)CC[C@]65O)C4)O[C@@H]3C)O[C@@H]2C)C[C@H](O)[C@@H]1O [DIGITOXIN]
Not Active: IC50 [1] | Ki [1] | IC50 [2] | IC50 [3] | IC50 [4] | IC50 [5] | IC50 [6] | IC50 [7] | Ki [7] | IC50 [8]

S=C=Nc1cccc2ccccc12 [1-NAPHTHYLISOTHIOCYANATE]
Not Active: IC50 [1] | Ki [1] | IC50 [2] | IC50 [3] | IC50 [4] | IC50 [5] | IC50 [6] | IC50 [7] | Ki [7] | IC50 [8]

C[C@]12CC[C@@H]3c4ccc(O)cc4CC[C@H]3[C@@H]1CC[C@@H]2O [ESTRADIOL]
Not Active: IC50 [1] | Ki [1] | IC50 [2] | IC50 [3] | IC50 [4] | IC50 [5] | IC50 [6] | IC50 [7] | Ki [7] | IC50 [8]

CCOC(=O)C1=C(C)NC(C)=C(C(=O)OC)C1c1cccc([N+](=O)[O-])c1 (stereo unspecified) [NITRENDIPINE]
Not Active: IC50 [1] | Ki [1] | IC50 [2] | IC50 [3] | IC50 [4] | IC50 [5] | IC50 [6] | IC50 [7] | Ki [7] | IC50 [8]

CC1=C(C(=O)O)N2C(=O)[C@@H](NC(=O)[C@H](N)c3ccccc3)[C@H]2SC1 [CEPHALEXIN ANHYDROUS]
Not Active: IC50 [1] | Ki [1] | IC50 [2] | IC50 [3] | IC50 [4] | IC50 [5] | IC50 [6] | IC50 [7] | Ki [7] | IC50 [8]

CN(C)/N=N/c1[nH]cnc1C(N)=O [DACARBAZINE]
Not Active: IC50 [1] | Ki [1] | IC50 [2] | IC50 [3] | IC50 [4] | IC50 [5] | IC50 [6] | IC50 [7] | Ki [7] | IC50 [8]

COc1ccc2c(c1)[C@]13CCCC[C@@H]1[C@H](C2)N(C)CC3 [DEXTROMETHORPHAN]
Not Active: IC50 [1] | Ki [1] | IC50 [2] | IC50 [3] | IC50 [4] | IC50 [5] | IC50 [6] | IC50 [7] | Ki [7] | IC50 [8]

COc1ccccc1C(=O)N1CCC(Cc2ccccc2)CC1
Not Active: IC50 [1] | Ki [1] | IC50 [2] | IC50 [3] | IC50 [4] | IC50 [5] | IC50 [6] | IC50 [7] | Ki [7] | IC50 [8]

C=C1CC[C@H](O)C/C1=C/C=C1\CCC[C@]2(C)[C@@H]([C@H](C)CCCC(C)C)CC[C@@H]12 [CHOLECALCIFEROL]
Not Active: IC50 [1] | Ki [1] | IC50 [2] | IC50 [3] | IC50 [4] | IC50 [5] | IC50 [6] | IC50 [7] | Ki [7] | IC50 [8]

COc1cc2c(c3oc(=O)c4c(c13)CCC4=O)[C@@H]1C=CO[C@@H]1O2 [AFLATOXIN]
Not Active: IC50 [1] | Ki [1] | IC50 [2] | Ki [2] | IC50 [3] | Ki [3] | IC50 [4] | Ki [4] | IC50 [5] | Ki [5] | IC50 [6] | Ki [6] | IC50 [7] | Ki [7] | IC50 [8] | Ki [8]
